Data from article PMC7359039, “Peptides based on the reactive center loop of Manduca sexta serpin-3 block its protease inhibitory function” (Scientific Reports, 2020).

Experiments:
[1] = tested on: serpin-3∆N; test: Circular dichroism thermal stability of serpin-3∆N and its binary complex with peptide; assay type: physicochemical, Manduca sexta; conditions: binary complex purified by gel permeation; 10 mM Tris, 5 mM NaCl, pH 8.0; 90 °C highest temperature tested
Experimental: To examine effects of RCL-derived peptides on serpin-3ΔN secondary structure, 600 µL serpin-3ΔN (150 μg) and 1.8 mL Ac-SVAFS-COO^− (25 μmol) were mixed and incubated at 37 °C for 2 h to allow formation of a serpin-peptide binary complex. Then the mixture was subjected to gel permeation chromatography using Superdex 200 10/300 GL ([…]) in 20 mM Tris–HCl, 150 mM NaCl, pH 8.0 to separate binary complex from free peptide. The fractions containing serpin-3ΔN, presumed to be in complex with peptide, were pooled and quantified. Ellipticity of serpin-3ΔN (0.149 mg/ml) or purified binary complex (0.129 mg/ml) in 10 mM Tris, 5 mM NaCl, pH 8.0 was measured in a 0.01 cm cuvette from 190 to 260 nm at 20 °C. The temperature was then increased in 10 °C increments, and the spectra were measured at each temperature from 20 to 90 °C. The ellipticity of the buffer was also recorded and subtracted from that of serpin-3ΔN and binary complex. The data were smoothed by the method of Savitzky-Golay with value of 15[33]. Mean residue ellipticity was calculated as (ellipticity × mean residue weight)/(10 × 0.01 cm × concentration). Three replicates were examined and results were visualized by GraphPad Prism (means ± standard deviation).

[2] = Aqueous solubility of peptides (qualitative); assay type: physicochemical; conditions: qualitative statement
[3] = tested on: serpin-3∆N; test: Time course of inactivation of serpin-3∆N by pentapeptides; assay type: biochemical, Manduca sexta; conditions: peptide 400 nmol, serpin-3∆N 720 ng, 37 °C; for suppression of serpin-3∆N inhibitory activity by 40 min: aliquots with 72 ng PAP3 10 min room temperature, IEARase activity
Experimental: To examine the time course of peptide interaction with serpin-3ΔN, pre-dried Ac-SVAFS-NH2 or Ac-SVAFS-COO^- (400 nmol) were incubated with 40 μL purified serpin-3ΔN (720 ng) supplemented with 40 μL BSA (80 μg) at 37 °C for 1 h. At 0, 10, 20, 40 and 60 min, 12 μL aliquots were withdrawn and immediately incubated with 72 ng of PAP3 at room temperature for 10 min, followed by measuring residual PAP3 activity with […] in 0.1 M Tris, 0.1 M NaCl, 5 mM CaCl2, pH 8.0.

[4] = tested on: proPO activation system in plasma; test: proPO activation in plasma with added serpin-3∆N, untreated or pre-incubated with peptide; assay type: biochemical, Manduca sexta; conditions: peptide 10 nmol pre-incubated with serpin-3∆N 0.1 µg at 37 °C 2 h, 2 µl plasma, one unit = 0.001 change of OD470 per minute, mean ± SD, n = 4 larvae
Experimental: Hemolymph was collected from day 2 fifth instar larvae and centrifuged at 12,000 rpm for 25 min at 4 °C to remove hemocytes, to prepare plasma samples containing the proPO activation system. To examine the effect of pre-incubation of peptide with serpin before exposure to plasma, Ac-SVAFS-COO^− (10 nmol in TFE) or TFE alone were dried in wells of a 96-well plate and then incubated with 4 µL serpin-3ΔN (0.1 µg) at 37 °C for 2 h, followed by incubation with 2 μl plasma at room temperature for 10 min. Then the proPO cascade was stimulated by addition of 1 μg Micrococcus luteus to activate the proPO protease cascade or filter-sterilized 0.85% NaCl as a control. These mixtures were incubated at room temperature for 10 min, and then PO activity was measured by adding 100 μl of 4 mM dopamine as substrate in 50 mM sodium phosphate, pH 6.5. PO activity was measured by detecting increase in absorbance at 470 nm. One unit of PO activity was defined as 1,000 × ∆A470/minute. Three replicates with four different larval plasma samples were examined. Paired one-way ANOVA with Tukey’s multiple comparison as post test was performed in GraphPad Prism.

[5] = molecular target: Manduca sexta prophenoloxidase activating protease 3 (PAP3), activated form (Manduca sexta)
[6] = tested on: proPO activation system in plasma (endogenous serpin-3); test: proPO activation in plasma mixed directly with peptide; assay type: biochemical, Manduca sexta; conditions: plasma incubated with pre-dried peptide 1 h room temperature, then M. luteus 10 min; one unit = 0.001 change of OD470 per minute; mean ± SD, n = 4 larvae
Experimental: For an experiment to test the effects of peptide mixed directly to plasma samples, pre-dried Ac-SVAFS-NH2 (25 nmol) or TFE in wells of a 96-well plate were incubated with 5 μl plasma for 1 h at room temperature, followed by addition of 95 μl of 50 mM sodium phosphate buffer, pH 6.5 supplemented with or without 2 μg of M. luteus (Sigma). After incubation for 10 min at room temperature, PO activity was measured as described above. Three replicates with four different larval plasma samples were examined. Statistical analysis was done as described above.

[7] = tested on: serpin-3∆N; test: SDS-PAGE and immunoblot of serpin-3∆N/PAP3 inhibitory complex formation in presence of peptides; assay type: biochemical, Manduca sexta; conditions: peptide 25 nmol, serpin-3∆N 135 ng 37 °C 2 h, PAP3 108 ng 10 min; reducing SDS-PAGE, serpin-3 antiserum
Experimental: Protein concentration was measured using Coomassie Plus Protein Assay Reagent (Thermo Scientific), with bovine serum albumin as a standard. Protein samples analyzed by SDS polyacrylamide gel electrophoresis were mixed with 2 × or 6 × SDS loading buffer (supplemented with β-mercaptoethanol) followed by heating at 95 °C for 5 min. Samples were loaded into wells of 4–12% Bis–Tris NuPAGE gels (Invitrogen) and separated by electrophoresis using MOPS buffer. The gels were stained using Instant Blue (Expedeon) or transferred to nitrocellulose in a semi-dry transfer cell (Bio-Rad). The presence of PAP3 or serpin-3ΔN on the membrane was detected using rabbit antisera to PAP3[31] or serpin-3[13], followed by goat anti-rabit IgG conjugated to alkaline phosphatase (BioRad) and colorimetric detection of immobilized alkaline phosphatase activity.
Peptides (25 nmol) in TFE or TFE alone as a control were applied to wells of a 96-well plate and allowed to dry (> 1 h). Serpin-3ΔN (135 ng/7.5 µl) was then added to the wells and incubated at 37 °C for 2 h. […] The PAP3 substrate N-acetyl-Ile-Glu-Ala-Arg-p-nitroanilide (IEAR-pNA) at 50 µM in 0.1 M Tris, 0.1 M NaCl, 5 mM CaCl2, pH 8.0 was then added, and residual PAP3 activity was measured by the change of absorbance at 405 nm over 20 min at room temperature. […] Samples were then analyzed by reducing SDS-PAGE and immunoblotting as described above.

[8] = tested on: serpin-3∆N; test: Blocking of serpin-3∆N inhibition of PAP3 by RCL-derived peptides (residual IEARase activity); assay type: biochemical, Manduca sexta; conditions: serpin-3∆N 135 ng, 37 °C 2 h; for PAP3 activity (percentage of IEARase activity) after treatment of serpin-3∆N with peptide: peptide 25 nmol pre-dried, then PAP3 108 ng 10 min room temperature, IEAR-pNA 50 µM, mean ± SD, n = 3; for blockage of serpin-3∆N inhibition of PAP3: peptide 25 nmol, PAP3 108 ng
Experimental: Peptides (25 nmol) in TFE or TFE alone as a control were applied to wells of a 96-well plate and allowed to dry (> 1 h). Serpin-3ΔN (135 ng/7.5 µl) was then added to the wells and incubated at 37 °C for 2 h. PAP3 (108 ng) supplemented with 18 μg bovine serum albumin (BSA) in 46.5 µl 20 mM Tris, 150 mM NaCl, pH 8.0,was then added to the wells and incubated for 10 min at room temperature. The PAP3 substrate N-acetyl-Ile-Glu-Ala-Arg-p-nitroanilide (IEAR-pNA) at 50 µM in 0.1 M Tris, 0.1 M NaCl, 5 mM CaCl2, pH 8.0 was then added, and residual PAP3 activity was measured by the change of absorbance at 405 nm over 20 min at room temperature. Percentage of IEARase activity was defined as IEARase activity divided by IEARase activity of PAP3 in the absence of serpin. One-way ANOVA with Tukey’s multiple comparison as post test was performed in GraphPad Prism. Samples for analysis by reducing SDS-PAGE and immunoblotting were prepared in a similar way. Peptides or TFE were dried in 1.5 mL microcentrifuge tubes and incubated with 7.5 µl serpin-3ΔN (135 ng) at 37 °C for 2 h, followed by addition of 46.5 µl PAP3 (108 ng) supplemented with 18 µg BSA. and further incubated for 10 min at room temperature. Samples were then analyzed by reducing SDS-PAGE and immunoblotting as described above.

[9] = molecular target: Manduca sexta serpin-3∆N (Manduca sexta)
[10] = molecular target: Manduca sexta serpin-3∆N (Manduca sexta); remark: listed apart in the source

For Ac-SVAFS-COO^−, the “temperature up to which serpin-3∆N in complex with peptide showed little change in CD spectrum” value [1] was at least 90 °C, the aqueous solubility [2] was “improved solubility” and the aqueous solubility ([2]; listed as five residue peptide SVAFS with only an N-terminal acetylated group) was “much more soluble”. The “time after which inactivation of serpin-3∆N began to occur” value [3] was at most 10 min, the “suppression of serpin-3∆N inhibitory activity by 40 min” value [3] was ~ 100% and the “PO activity in M. luteus-stimulated plasma with peptide-treated serpin-3∆N added” value [4] was 8.7 ± 2.8 unit.

Molecule “Manduca sexta serpin-3∆N (domain or fragment)” has a residual PAP3 amidase (IEARase) activity on IEAR-pNA after 10 min with serpin-3∆N, percent of PAP3 without serpin [5] of 9%.

With “Ac-SVAFS-NH2 [pentapeptide from serpin-3 RCL P14-P10, acetylated and amidated]” the aqueous solubility [2] was “very low”, the “PO activity in plasma incubated with peptide, after addition of bacteria” value [6] was 10.7 ± 5.5 unit and the “time after which inactivation of serpin-3∆N began to occur” value [3] was at most 10 min. For the same molecule, the “suppression of serpin-3∆N inhibitory activity by 40 min” value [3] was ~ 100%, the “~75 kDa serpin-3∆N-PAP3 inhibitory complex on immunoblot” value [7] was “absence” and the “PAP3 activity (percentage of IEARase activity) after treatment of serpin-3∆N with peptide” value [8] was 100% ± 6%. The “blockage of serpin-3∆N inhibition of PAP3” value [8] was “completely blocked”.

For “Ac-SVAFSATQ-NH2 [octapeptide from serpin-3 RCL P14-P7]”, the “PAP3 activity (percentage of IEARase activity) after treatment of serpin-3∆N with peptide” value [8] was 59% ± 5% and the “blockage of serpin-3∆N inhibition of PAP3” value [8] was “about 50%”.

Ac-SVAFS-NH2 [Ac-SVAFS-NH2] showed a residual PAP3 amidase (IEARase) activity after serpin-3∆N was pre-treated with 25 nmol peptide (37 °C, 2 h); the peptide blocks inhibition of PAP3 by serpin-3∆N [9] of 100% and a time course (0-60 min at 37 °C, 400 nmol peptide) of suppression of serpin-3∆N inhibition of PAP3, read as PAP3 IEARase activity [10] of 100%.

Ac-SVAFSATQ-NH2 [Ac-SVAFSATQ-NH2] gave a residual PAP3 amidase (IEARase) activity after serpin-3∆N was pre-treated with 25 nmol peptide (37 °C, 2 h); the peptide blocks inhibition of PAP3 by serpin-3∆N [9] of 59%.

Molecule Ac-SVAFS-OH [Ac-SVAFS-COO^−] has a time course (0-60 min at 37 °C, 400 nmol peptide) of suppression of serpin-3∆N inhibition of PAP3, read as PAP3 IEARase activity [10] of 100%.
